Measured values reported in article PMC8315060, “N-terminus-independent activation of c-Src via binding to a tetraspan(in) TM4SF5 in hepatocellular carcinoma is abolished by the TM4SF5 C-terminal peptide application” (Theranostics, 2021).
Where a SMILES comes first, the peptide text is derived from it.

Assays:
[1] = test system: SNU449T7 cells stably expressing TM4SF5; assay: Mouse tumor xenograft of TM4SF5-expressing SNU449 cells; assay type: in vivo, BALB/c-nu/nu mice
Description: Mouse tumor xenograft: Four-week-old female or male BALB/c-nu/nu mice were purchased from Orient Co. Ltd (Seungnam, Korea). All animal procedures were performed in accordance with the Seoul National University Laboratory Animal Maintenance Manual and with Institutional Review Board approval (SNU-130311-6-2, SNU-140423-11-7). Mice were housed in a specific pathogen-free room under controlled temperature and humidity. Viable SNU449T7 cells (5 × 10^6) stably expressing TM4SF5 or PLC/PRF/5 cells (10^7) endogenously expressing TM4SF5 were resuspended in sterile PBS and injected subcutaneously into 5-week-old mice (n = 5 or 6, respectively). […] Body weight and tumor volume, which was determined as described previously, were measured daily.
Figure 7 TM4SF5 C-terminal peptides suppress TM4SF5-mediated tumorigenesis and metastasis. […] (E) Degradation of Oregon Green® 488-conjugated gelatin were analyzed for SNU761 cells stably expressing mock (mock) or TM4SF5WT with the 10 μM CPPs treatment for 24 h (mean ± SD values). (F) TM4SF5-null SNU449Cp (Cp) and stably TM4SF5-expressing SNU449Tp (Tp) cells were treated with the 10 μM CPPs for 24 h and then analyzed for transwell migration for 4 h (mean ± SD values in the graph). […] Surface nodules were counted and the mean ± SD values are presented (graph). […]

[2] = test system: SNU761-TM4SF5 cells; assay: Transwell chemotactic migration of SNU761-TM4SF5 cells with PP2; assay type: cell-based, human; conditions: PP2 10 μM, transwell migration 4 h, 10% FBS; Figure 3F and S2B
Description: SNU761 cells stably expressing TM4SF5WT were transiently transfected with control siRNA against a scrambled sequence (siControl) or PTP1B (siPTP1B) for 48 h before undergoing the Transwell migration assay for 4 h. Cells were treated with the CPPs before being loaded into the upper chambers. The cells were then analyzed for migration or invasion using Transwell chambers with 8-μm pores (Corning Inc., Corning, NY, USA), where the bottom chamber was filled with 1% BSA alone (in serum-free media) or normal culture media containing 10% FBS as explained previously. After incubation, the number of migrated cells from randomly saved images (n = 10) per condition was counted. The data are graphed as the mean ± standard deviation (SD) for each experimental condition.
Figure S2. TM4SF5-mediated invasion and migration involves PTP1B-regulated c-Src activity. (A) SNU761 cells stably expressing mock or TM4SF5WT were transiently transfected without (No T/F) or with c-Src WT, c-Src SH432, or c-Src SH1 expression constructs for 48 h prior to invasive ECM degradation analysis for 4 h. (B) SNU761 cells stably expressing TM4SF5WT were transiently transfected with control siRNA against a scrambled sequence (siControl) or a sequence in PTP1B (siPTP1B) for 48 h, prior to transwell migration assay for 4 h. […]

[3] = test system: SNU449Tp cells expressing FAK-KD; assay: Transwell migration of FAK-KD-expressing SNU449Tp cells with PP2 or PP3; assay type: cell-based, human; conditions: SNU449Tp cells infected with FAK-KD adenovirus, 10 μM, transwell migration 12 h, 10% FBS in lower chamber; Figure S1C
[4] = Stability of peptides in mouse serum; assay type: in vitro ADME; conditions: C57BL/6 mouse serum, 10 ppm/reaction, 24 h vs 0 h (without mixing with serum), formic acid precipitation, LC (ZORBAX Eclipse C18) with ELSD; one range printed for both peptides; Figure S6A
Description: collected after centrifugation at 13,000 × g for 10 min and stored at -20 ℃. To analyze, we used the ZORBAX Eclipse C18 Column (2.6 × 250 mm, 5 μm) in the Agilent 1200 Infinity LC and kept the column temperature at 40 ℃. Injection volume from samples was 20 μL and for the mobile phase, MS grade water with 0.1% formic acid (‘a’) and MS grade acetonitrile (‘b’) were flowed at the velocity of 1 mL/min. The gradient per sample was ‘a’ (5%)/’b’(95%) for 0 and 5 min, ‘a’ (90%)/’b’(10%) for 10 min, and ‘a’ (40%)/’b’(60%) for 15 min. Agilent 1260 infinity ELSD was used with an LC stack for detection. […]

[5] = molecular target: STrEP-tagged TM4SF5WT (UniProt O14894); assay: streptavidin pull-down and immunoblot; conditions: SNU449 cells with STrEP-TM4SF5; 50 kDa band, IP: STrEP lanes
STrEP-tagged TM4SF5WT, sequence (O14894 whole entry): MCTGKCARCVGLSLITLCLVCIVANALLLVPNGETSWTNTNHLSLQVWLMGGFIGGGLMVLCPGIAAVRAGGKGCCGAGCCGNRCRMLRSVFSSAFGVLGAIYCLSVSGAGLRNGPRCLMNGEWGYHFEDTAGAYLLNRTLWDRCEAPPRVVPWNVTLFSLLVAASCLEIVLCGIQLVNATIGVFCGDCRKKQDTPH

response (relative band intensity (ImageJ ratio)) [5] | Compound | peptide remaining after incubation in mouse serum [4] | further results
1 | c-Src-SH321 Y419F |  | 
0 | c-Src-SH321 Y419F; Y530F |  | 
0 | c-Src-SH321 Y530F |  | 

Continued, compound first:

Compound | response (relative band intensity (ImageJ ratio)) [5] | peptide remaining after incubation in mouse serum [4] | further results
CC(C)(C)n1nc(-c2ccc(Cl)cc2)c2c(N)ncnc21 [PP2] |  |  | TM4SF5-dependent tumor formation in xenograft ([1]; 3 mg/kg subcutaneous injection every day for 10 days, n = 4, Figure S5A): suppressed TM4SF5-dependent tumor formation; effect on xenograft tumor growth, 15-day treatment ([1]; n = 6, 15 days, PP2 3 mg/kg, TCsr 0.111 nmol/g, TcxC 0.095 nmol/g, Figure S5B): suppressive effect; chemotactic migration of SNU761-TM4SF5 cells [2]: abolished; residual migration of FAK-KD cells [3]: abolished
C[C@@H](O)[C@H](NC(=O)[C@@H]1CCCN1C(=O)[C@H](CCCNC(=N)N)NC(=O)[C@H](CCCNC(=N)N)NC(=O)[C@H](CCCNC(=N)N)NC(=O)[C@H](CCC(N)=O)NC(=O)[C@H](CCCNC(=N)N)NC(=O)[C@H](CCCNC(=N)N)NC(=O)[C@H](CCCCN)NC(=O)[C@H](CCCCN)NC(=O)[C@@H](N)CCCNC(=N)N)C(=O)N[C@@H](CS)C(=O)N[C@@H](CCCCN)C(=O)N1CCC[C@H]1C(=O)N[C@@H](CC(=O)O)C(=O)N[C@@H](CCCCN)C(=O)NCC(=O)N[C@@H](CCC(N)=O)C(=O)N[C@@H](CCCNC(=N)N)C(=O)N[C@@H](Cc1c[nH]cn1)C(=O)N[C@@H](CC(=O)O)C(=O)O [TCsr] (H-RKKRRQRRRPTCKPDKGQRHD-OH) |  | 44-65% | 
CC[C@H](C)[C@H](NC(=O)[C@@H](NC(=O)[C@H](CS)NC(=O)[C@@H]1CCCN1C(=O)[C@H](CCCNC(=N)N)NC(=O)[C@H](CCCNC(=N)N)NC(=O)[C@H](CCCNC(=N)N)NC(=O)[C@H](CCC(N)=O)NC(=O)[C@H](CCCNC(=N)N)NC(=O)[C@H](CCCNC(=N)N)NC(=O)[C@H](CCCCN)NC(=O)[C@H](CCCCN)NC(=O)[C@@H](N)CCCNC(=N)N)C(C)C)C(=O)N[C@@H](CCSC)C(=O)NCC(=O)N[C@@H](CC(=O)O)C(=O)N[C@@H](CS)C(=O)N[C@@H](CCCNC(=N)N)C(=O)N[C@@H](CCCCN)C(=O)N[C@@H](CCCCN)C(=O)N[C@@H](CCC(N)=O)C(=O)N[C@@H](CC(=O)O)C(=O)N[C@H](C(=O)N1CCC[C@H]1C(=O)N[C@@H](Cc1c[nH]cn1)C(=O)O)[C@@H](C)O [TcxC] (H-RKKRRQRRRPCVIMGDCRKKQDTPH-OH) |  | 44-65% | 
